Consider 28 compounds from US7910747B2, “Phosphonate and phosphinate pyrazolylamide glucokinase activators” (Bristol-Myers Squibb Company, priority 2006, dated 2011).

As usually defined, the EC50 is the concentration needed to bring the measured effect to its halfway point. High values mean lower potency in that assay, low ones higher potency in that assay.

For one experiment, the target named is T1, human glucokinase (GK) (Homo sapiens, UniProt P35557).
T1 construct: Full-length human hepatic GK (untagged) was expressed in BL21 STAR (DE3)pLysS cells; made in house; host or cells: E. coli BL21 STAR (DE3)pLysS
T1 sequence (P35557 1-466 isoform P35557-2): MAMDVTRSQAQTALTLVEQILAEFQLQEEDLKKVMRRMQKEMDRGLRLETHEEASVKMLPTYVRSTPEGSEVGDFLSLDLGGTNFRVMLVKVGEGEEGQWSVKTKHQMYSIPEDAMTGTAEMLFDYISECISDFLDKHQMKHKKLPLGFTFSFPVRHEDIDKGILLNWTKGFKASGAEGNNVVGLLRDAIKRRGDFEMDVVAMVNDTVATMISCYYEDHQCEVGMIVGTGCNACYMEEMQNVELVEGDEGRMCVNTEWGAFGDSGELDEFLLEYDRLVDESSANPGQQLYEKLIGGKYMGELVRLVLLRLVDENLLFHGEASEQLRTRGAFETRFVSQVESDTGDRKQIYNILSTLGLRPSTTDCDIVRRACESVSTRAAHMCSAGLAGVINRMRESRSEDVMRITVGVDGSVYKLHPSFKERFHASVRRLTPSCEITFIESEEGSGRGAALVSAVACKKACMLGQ
In words: Glucokinase tandem enzymatic assay. Conditions: 12 mM glucose; for EC50: EC50 = concentration to achieve 50% of full activation; for Emax: expressed as % of basal activation, EC50 could not be calculated from the activation curves, read-out: Maximal activation (%) Human Glucokinase @ 12 mM Glucose. It counts as biochemical. The protocol:
Enzymatic activity of human glucokinase (GK) was measured by incubating GK, ATP, and glucose for discrete time periods followed by quenching with EDTA (ethylenediamine tetra-acetic acid). Relative amounts of product glucose-6-phosphate (G6P) were measured by then running a detection assay using G6P dehydrogenase and measuring the conversion of ThioNAD (thio-nicotinamide adenine dinucleotide) to ThioNADH (thio-dihydronicotinamide adenine dinucleotide) at a wavelength of 405 nm. This ‘uncoupled’ enzymatic reaction is denoted as the GK ‘tandem’ assay. Activation of GK by compounds can be assessed using this assay. The GK tandem assay protocol described below was followed using a range of activator compound concentrations from 0 to 100 μM at 5 and 12 mM of glucose. […] To initiate the GK reaction, magnesium-ATP (3 mM final concentration) was added to GK in buffer (final buffer conditions of 25 mM HEPES buffer, pH 7.1, containing 1 mM dithiothreitol and 5% DMSO). The total reaction volume was 20 μL. The reaction was allowed to proceed for ten minutes and was then quenched with 5 μL EDTA; 45 mM final). […] Absorbance was read, background glucose-6-phosphate levels were subtracted, after which activation was calculated as a percentage of control activity. Control activity was determined using GK in the presence of vehicle (DMSO), with background glucose-6-phosphate subtracted. Background glucose-6-phosphate was determined by pre-quenching GK with EDTA prior to reaction initiation with ATP.
Full-length human hepatic GK (untagged) was expressed in BL21 STAR (DE3)pLysS cells (Invitrogen) at 25° C. as described by Mookhtiar et al. (1). The protein was purified essentially as described by Lange (2) with a slight modification. […] The resulting pellet was resuspended in buffer, dialyzed, and applied directly to a Q-Sepharose (Sigma) column followed by elution with a linear 100-600 mM KCl gradient. GK containing fractions were pooled, dialyzed overnight vs. 25 mM Hepes pH 7.2/1 mM MgCl2/1 mM EDTA/0.1 M KCl/1 mM DTT, then dialyzed again with same buffer with 10% glycerol added.

For experiment [1], the system named is male DIO (diet-induced obese) C57BL/6J mice. Put plainly: Oral glucose tolerance test (OGTT) in DIO mice. It counts as in vivo. Conditions: 60 min before 2 g/kg oral glucose, DIO C57BL/6J mice; for Reduction in Glucose AUC at 30 mg/kg dose: 30 mg/kg oral. Here is the method:
[…]. Mice were fasted overnight before use for experiments. A test compound or vehicle (either: 1) 40% PEG 400+10% Cremophore +50% water or 2) 10% dimethyl acetamide +10% ethanol +10% Cremophore +70% water) was given orally 60 min before oral administration of a glucose solution at a dose of 2 g/kg body weight (oral glucose tolerance test; OGTT). […].

For `CCOP(=O)(Cc1csc(NC(=O)c2cc(OCCCS(C)(=O)=O)cc(O[C@@H](C)COC)c2)n1)OCC` [Example 139], a half-maximal effect on human glucokinase (GK) (EC50) was put at 467 nM. In turn, `CCOP(=O)(Cc1nc(NC(=O)c2cc(Oc3ccc(S(C)(=O)=O)cc3)cc(O[C@@H](C)COC)c2)sc1Br)OCC` [Example 51] gave an EC50 on human glucokinase (GK) of 15 nM. For the compound `CCOP(=O)(Cc1csc(NC(=O)c2cc(OCC(O)c3ccccc3)cc(OC(C)C)c2)n1)OCC` (centres unmarked) [Example 121], the Emax on human glucokinase (GK) was 126%.

In turn, `CCOP(=O)(Cc1csc(NC(=O)c2cc(Oc3ccc(S(C)(=O)=O)cc3)cc(O[C@@H](C)COC)c2)n1)OCC` [Example 37] had an EC50 at human glucokinase (GK) of 34 nM. Further, the “Reduction in Glucose AUC at 30 mg/kg dose” value (shortened to “Reduction … at 30 mg/kg dose”) in experiment [1] was determined as 88%.

For the compound `CCOP(=O)(Cc1csc(NC(=O)Cc2ccc(OC)cc2OC)n1)OCC` [Example 74], the Emax on human glucokinase (GK) is 142%.

As to `CCOP(=O)(Cc1nc(NC(=O)c2cc(Oc3ccc(S(C)(=O)=O)cc3)cc(O[C@@H](C)COC)c2)sc1Cl)OCC` [Example 50], the response on human glucokinase (GK) was half-maximal at 22 nM (EC50). In the case of `CCOP(=O)(CSc1cnc(NC(=O)[C@H](CC2CCCC2)c2ccc(S(C)(=O)=O)cc2)s1)OCC` [Example 22], the response on human glucokinase (GK) was half-maximal at 402 nM (EC50).

`CCOP(=O)(Cn1ccc(NC(=O)c2cc(Oc3ccc(S(C)(=O)=O)cc3)cc(O[C@@H](C)COC)c2)n1)OCC` [Example 32] displayed a half-maximal effective concentration (EC50) on human glucokinase (GK) of 65 nM. Moreover, the “Reduction in Glucose AUC” value in experiment [1] (30 μmol/kg oral) was 79% @ 30 μmol/kg. In turn, `CCOP(=O)(Cc1cnc(NC(=O)[C@H](CC2CCOCC2)c2ccc(S(=O)(=O)C3CC3)cc2)cn1)OCC` [Example 44] displayed an EC50 at human glucokinase (GK) of 564 nM. Moreover, the “Reduction … at 30 mg/kg dose” value in experiment [1] is 62-80%. As for `CCOP(=O)(Cc1csc(NC(=O)c2nn(CC3CC3)c3cc(S(C)(=O)=O)ccc23)n1)OCC` [Example 86], the Emax at human glucokinase (GK) was 141%. Turning to `CCOP(=O)(Cc1csc(NC(=O)c2cc(OC(C)C)cc(O[C@@H]3CCN(C(=O)OC)C3)c2)n1)OCC` [Example 116], at human glucokinase (GK), the concentration for a half-maximal effect (EC50) was determined as 469 nM.

In the case of `CCOP(=O)(Cc1csc(NC(=O)c2cc(O[C@@H](C)COC)cc(O[C@@H](C)Cc3ccccc3)c2)n1)OCC` [Example 145], on human glucokinase (GK), the 50% effective concentration (EC50) came out at 24 nM. Besides, the “Reduction … at 30 mg/kg dose” value in experiment [1] is given as 71%.

As for `CCOP(=O)(Cc1csc(NC(=O)c2cc(OC(C)C)cc(O[C@H]3CCN(S(C)(=O)=O)C3)c2)n1)OCC` [Example 113], the EC50 on human glucokinase (GK) turned out to be 437 nM. With `CCOP(=O)(Cc1csc(NC(=O)c2cc(O[C@@H](C)CO)cc(O[C@@H](C)Cc3ccccc3)c2)n1)OCC` [Example 137], the EC50 at human glucokinase (GK) is 21 nM.

The compound `COC[C@H](C)Oc1cc(Oc2ccc(S(C)(=O)=O)cc2)cc(C(=O)Nc2nc(CP3(=O)OCCCO3)cs2)c1` [Example 169] displayed an EC50 on human glucokinase (GK) of 9 nM. As to `CCOP(=O)(Cc1csc(NC(=O)c2cc(OCC(F)(F)c3ccccc3)cc(OC(C)C)c2)n1)OCC` [Example 123], the Emax at human glucokinase (GK) was 135%.

As to `CCOP(=O)(CS(=O)(=O)c1cnc(NC(=O)[C@H](CC2CCCC2)c2ccc(S(C)(=O)=O)cc2)s1)OCC` [Example 23], at human glucokinase (GK), the Emax is 150%.

As to `CCOP(=O)(Cc1csc(NC(=O)c2cc(OC(C)C)cc(O[C@H]3CCN(C(C)=O)C3)c2)n1)OCC` [Example 112], the response on human glucokinase (GK) was half-maximal at 428 nM (EC50).

On to `CCOP(=O)(/C=C/c1cnc(NC(=O)[C@H](CC2CCCC2)c2ccc(S(C)(=O)=O)cc2)s1)OCC` [Example 35], for which the Emax on human glucokinase (GK) is 133%. As for `CCOP(=O)(Cc1csc(NC(=O)c2cc(OCCSC)cc(O[C@@H](C)COC)c2)n1)OCC` [Example 134], on human glucokinase (GK), the EC50 came to 476 nM.

As to `COC[C@H](C)Oc1cc(Oc2ccc(S(C)(=O)=O)cc2)cc(C(=O)Nc2nc(CP(C)(=O)O)cs2)c1` [Example 56], at human glucokinase (GK), the EC50 stood at 534 nM. With `CCOP(=O)(Cc1ccc(NC(=O)c2cc(Oc3ccc(S(C)(=O)=O)cc3)cc(O[C@@H](C)COC)c2)nc1)OCC` [Example 29], the response at human glucokinase (GK) was half-maximal at 98 nM (EC50). For the same compound, the “Reduction … at 30 mg/kg dose” value in experiment [1] is 66-78%. In the case of `CCOP(=O)(Cn1ccc(NC(=O)c2cc(OCC(F)(F)c3ccccc3)cc(OC(C)C)c2)n1)OCC` [Example 122], the concentration giving a half-maximal response (EC50) at human glucokinase (GK) came out at 23 nM. In turn, `CCOP(=O)(Cn1ccc(NC(=O)c2cc(O[C@@H](C)COC)cc(O[C@@H](C)Cc3ccccc3)c2)n1)OCC` [Example 33] returned a concentration giving a half-maximal response (EC50) on human glucokinase (GK) of 26 nM.

In the case of `CCOP(=O)(Cc1csc(NC(=O)c2cc(CN3CCOC3=O)cc(OC)c2)n1)OCC` [Example 65], the Emax on human glucokinase (GK) is 162%. On human glucokinase (GK), `CCO[P@](C)(=O)Cc1csc(NC(=O)c2cc(Oc3ccc(S(C)(=O)=O)cc3)cc(O[C@@H](C)COC)c2)n1` (single isomer, unassigned) [Example 54] returned an EC50 of 49 nM. In addition, the “Reduction … at 30 mg/kg dose” value in experiment [1] is recorded as 68-82%. On to `CCOP(=O)(Cc1csc(NC(=O)c2ccc3c(c2)OCCO3)n1)OCC` [Example 79], for which, on human glucokinase (GK), the Emax is 133%. Turning to `CCOP(=O)(Cc1csc(NC(=O)c2cc(OC(C)C)cc(OC(C)C)c2)n1)OCC` [Example 148], a half-maximal effect on human glucokinase (GK) (EC50) was put at 178 nM. Besides, the “Reduction … at 30 mg/kg dose” value in experiment [1] is on record as 60%.
